The values below come from US10076527B2, “Standardized extract and its use in the manufacture of a medicament” (priority 2006, dated 2018).

Molecules are shown by their SMILES.

For data set [1], the system named is isolated guinea pig ileum. The settings on record: concentration of 54 mg/ml; cited from earlier work.
A further data set deals with anesthetized dogs. The settings on record: intravenous injection; cited from earlier work.
A further data set deals with conscious dogs. The following applies: intravenous injection; cited from earlier work.
The test system of the next data set is conscious cats. The following applies: intravenous injection; cited from earlier work.
Data set [2] has as its system mice with gastrointestinal hypo-function induced by atropine. Kind of data set: Intestine enterokinesia in mice with gastrointestinal hypo-function induced by atropine. In kind it is in vivo, ICR mice. The following applies: extract high dose rectal; Neostigmine 0.15 mg/kg hypodermic. As to the method: In this experiment, 66 male ICR mice weighing 22-26 g respectively were divided randomly into 6 groups with 11 per group. They were fasted for 24 hours before the experiment. The 6 groups were named as: • Normal control group, • Model group, • Positive control group, and • The three dose groups.
The mice in the normal control group were only injected saline at 0.1 ml/10 g and mice in all other groups were injected 0.25 mg/kg of Atropine hypodermic at 0.1 ml/10 g body weight.
Twenty minutes after injection Muskmelon-Base extract (diluted with the saline) was given to the mice at the doses of […] by rectal administration and saline solution was given to the mice in normal, control and the model groups. Neostigmine hypodermic injection (0.15 mg/kg) was given to the mice in the positive control group at the dose 0.1 ml/10 g body weight. A further 20 minutes later, an intragastric administration of 10% ink was given to all the mice at the dose 0.2 ml/10 g body weight.
All the mice were killed and laparotomized in 90 minutes. The intestine from the pylorus to the anus was taken out to measure the whole length of the alimentary tract. The distance from the pylorus to the front the ink impelled was measured to calculate the impelling percentage.

The subject of another data set is normal mice. Kind of data set: Excretion promotion study in normal mice (India ink). The format is in vivo, ICR mice. The following applies: positive control, hypodermic injection 0.1 ml/10 g, p<0.01. The protocol:
In this experiment, 50 male ICR mice weighing 23-27 g respectively were divided randomly into 5 groups with 10 per group, i.e. normal control, positive control and three dose groups at 2.48 mg/kg, 4.96 mg/kg and 9.92 mg/kg, respectively. They were fasted for 24 hours before the experiment.
The mice in the positive control group were given an injection of 0.1 ml/10 g body weight of Neostigmine hypodermically while the mice in the normal control groups were given rectal administrations of saline of 0.02 ml/10 g body weight. The mice in the three dose groups were given rectal administrations of the Muskmelon-Base extract (diluted with saline to give desired doses and given 0.02 ml/10 g body weight).
After medication, all the mice were intra-gastrically given infusions of India ink (10% ink, diluted with saline, at the dose 0.02 ml/10 g of body weight). The mice were individually put into a cage with white filter paper flooring. The time of excretion and quantity of the feces were recorded during 4-hour observation periods.

For the compound `CC(C)(O)/C=C/C(=O)[C@](C)(O)[C@H]1[C@H](O)C[C@@]2(C)[C@@H]3CC=C4[C@@H](C[C@H](O)C(=O)C4(C)C)[C@]3(C)C(=O)C[C@]12C` [Cucurbitacin D], the “effect on isolated guinea pig ileum” value in data set [1] is recorded as “did not cause any visible effect”. Further, the enterokinesia entry with anesthetized dogs is given as “stimulated enterokinesia”. The diarrhea entry with conscious dogs and in the data set on conscious cats was “induced diarrhea” each time.
Regarding `CN(C)C(=O)Oc1cccc([N+](C)(C)C)c1` [Neostigmine], the “muscle spasm side effect” value in data set [2] is reported as “always found in all mice”. The “quantity of the feces increased vs normal control” value in the data set on normal mice (4-hour observation) is listed as 49%. Also, in the data set on normal mice, the “duration for the first excretion of black feces shortened vs normal control” value is 53%.
